The text below walks through data of ChEMBL document CHEMBL1129671, “Substituted (pyrroloamino)pyridines: potential agents for the treatment of Alzheimer's disease” (J Med Chem, 1996).

Assay [1] relates to Mus musculus. In words: Antagonistic activity against scopolamine-induced behavioral deficits in mice by subcutaneous administration at a concentration of 0.63 mg/kg. It is filed as functional.
For assay [2], the target named is Muscarinic acetylcholine receptor. In words: Inhibition of radioligand [3H]QNB binding (competitive inhibition) to muscarinic acetylcholine receptor in the rat forebrain in the absence of zinc.
The target is the same in assay [3]. In words: Inhibition of radioligand [3H]QNB binding to muscarinic acetylcholine receptor in the rat forebrain in the presence of zinc.
Assay [4] relates to Mus musculus. The experiment in a line: Antagonistic activity against scopolamine-induced behavioral deficits in mice by subcutaneous administration at a concentration of 1.25 mg/kg. Format: functional.
In assay [5] the test system is Mus musculus. In words: Evaluated for the prevention of TBZ ptosis by intraperitoneal administration in mice. It is filed as functional. Conditions: ip.
The test system of assay [6] is Mus musculus. In words: Antagonistic activity against scopolamine-induced behavioral deficits in mice by subcutaneous administration at a concentration of 2.5 mg/kg. Format: functional.
For assay [7], the system named is Mus musculus. In words: Antagonistic activity against scopolamine-induced behavioral deficits in mice by subcutaneous administration at a concentration of 5.0 mg/kg. It is filed as functional.
For assay [8], the system named is Mus musculus. In words: Antagonistic activity against scopolamine-induced behavioral deficits in mice by subcutaneous administration at a concentration of 0.04 mg/kg. It is filed as functional.
In assay [9] the test system is Mus musculus. In words: Antagonistic activity against scopolamine-induced behavioral deficits in mice by subcutaneous administration at a concentration of 0.31 mg/kg. Format: functional.
In assay [10] the test system is Mus musculus. The experiment in a line: Antagonistic activity against scopolamine-induced behavioral deficits in mice by subcutaneous administration at a concentration of 0.16 mg/kg. Format: functional.
The subject of assay [11] is Mus musculus. In words: Antagonistic activity against scopolamine-induced behavioral deficits in mice by subcutaneous administration at a concentration of 0.02 mg/kg. It is filed as functional.
For assay [12], the system named is Mus musculus. The experiment in a line: (§1) Antagonistic activity against scopolamine-induced behavioral deficits in mice by subcutaneous administration at a concentration of 5 mg/kg. Format: functional.
Assay [13] has as its system Mus musculus. The assay is described as §1. It is filed as functional. The source holds these as a separate data set.

A word on the IC50: it is the point on the concentration scale where inhibition reaches its midpoint. The ED50 is the midpoint of the dose-response relation. A low value points to greater potency.

A value given as a limit tells only on which side of the number the result lay.

`CCN(c1ccncc1)n1cccc1Cl`: the Response amounted to 20% in assay [1], 36% in assay [4] and 27% in assay [6]. For the same molecule, the IC50 in assay [2] worked out at 5.4 µM; in assay [3] it was 33 µM. The same molecule yielded an ED50 in assay [5] of over 20 mg/kg.

`CN(c1ccncc1)n1cccc1/C=C/c1ccccc1`: the IC50 in assay [2] came out at 1.6 µM; in [3] it was 17 µM. In [5], this molecule showed an ED50 of over 20 mg/kg. The Response came out at 33% in assay [7] and 20% in [6].

In the case of `C#CCN(c1ccncc1)n1cccc1`, the Response in [8] is on record as 27%; in assay [9] it was 27%; in [10], 47%; in assay [11], 20%. For the same molecule, the IC50 in [2] was determined as 9 µM; in assay [3] it was 76.4 µM. This molecule came in with an ED50 in assay [5] of over 20 mg/kg.

As to `CN(c1ccncc1)n1cccc1C#N`, the IC50 came out at 24 µM in assay [2] and 295 µM in assay [3]. In addition, the results for the Response in assay [4] and in assay [7] were 40% and 20%, respectively. Moreover, the ED50 in assay [5] is over 20 mg/kg.

Regarding `CC(O)c1ccn(N(C)c2ccncc2)c1` (centres undefined), the IC50 in [2] was determined as 11 µM; in [3] it was 24 µM. The Response came out at 20% in [9], 27% in [4] and 20% in [10]. The molecule further showed an ED50 in assay [5] of 10 mg/kg.

`CCCN(c1ccncc1)n1cccc1C=O`: the IC50 in assay [2] is 14 µM; in assay [3], 51 µM. In assay [5], this molecule showed an ED50 of over 20 mg/kg.

On to `CCCN(c1ccncc1)n1cccc1`, for which the Response is recorded as 27% in assay [1], 33% in assay [10] and 27% in assay [6]. The IC50 in [2] stood at 6.5 µM; in assay [3] it was 21.5 µM. The molecule also displayed an ED50 in assay [5] of over 20 mg/kg.

On to `c1ccn(Nc2ccncc2)c1`, for which the Response in [1] is on record as 21%; in assay [9] it was 21%; in assay [6] it was 47%; in [12] it was 36%. Further, the figures for the IC50 in assay [2] and in [3] were 43 µM and 184 µM, respectively. The same molecule had an ED50 in assay [5] of over 20 mg/kg.

As for `CN(c1ccncc1)n1cccc1`, the figures for the IC50 in assay [2] and in assay [3] were 13 µM and 70 µM, respectively. Moreover, in assay [5], the ED50 was over 20 mg/kg. Also, the Response worked out at 1% in assay [12] and 29% in assay [13].

In the case of `CN(c1ccncc1)n1cccc1C=O`, the Response in assay [1] stood at 27%; in assay [9], 53%; in assay [4], 60%; in [10], 50%; in assay [7] it was 31%; in assay [6] it was 50%. Further, the IC50 in [2] amounted to 24 µM; in [3] it was 52 µM. In [5], this molecule came in with an ED50 of over 20 mg/kg.

Regarding `CCN(c1ccncc1)n1cccc1`, the IC50 amounted to 9.5 µM in assay [2] and 120 µM in [3]. The molecule also registered an ED50 in [5] of over 20 mg/kg.

As to `Clc1cccn1Nc1ccncc1`, the results for the IC50 in assay [2] and in assay [3] were 13 µM and 76.2 µM, respectively. In addition, the ED50 in assay [5] was over 20 mg/kg.

For the molecule `CN(c1ccncc1)n1cccc1Cl`, the IC50 amounted to 6.9 µM in assay [2] and 43 µM in assay [3]. The molecule further gave an ED50 in [5] of over 20 mg/kg.

`CCc1cccn1N(C)c1ccncc1`: the Response came out at 20% in [1] and 27% in assay [7]. Further, the IC50 in assay [2] is 6.4 µM; in assay [3], 22 µM. The ED50 in assay [5] is over 20 mg/kg.

Take `CN(c1ccncc1)n1ccc(C=O)c1`: the Response in [1] amounted to 33%; in assay [9] it was 20%; in assay [4], 29%; in [7] it was 47%. Further, the values for the IC50 in [2] and in [3] were 33 µM and 185 µM, respectively. For the same molecule, in assay [5], the ED50 was over 20 mg/kg.

On to `O=Cc1cccn1Nc1ccncc1`, for which the Response was 43% in [1], 27% in [9] and 20% in assay [10]. Also, the IC50 in assay [2] came to 86 µM; in assay [3] it was 721 µM. The molecule further returned an ED50 in assay [5] of over 20 mg/kg.

As to `CN(c1ccncc1)n1cccc1CO`, the IC50 in assay [2] turned out to be 26 µM; in [3], 39 µM. The ED50 in assay [5] was over 20 mg/kg.

With `CCCN(c1ccncc1)n1ccc(C=O)c1`, the IC50 in assay [2] stood at 11 µM; in [3], 138 µM. The same molecule displayed an ED50 in assay [5] of over 20 mg/kg.

For `CCCN(c1ccncc1)n1cccc1Cl`, the IC50 came out at 2.6 µM in assay [2] and 8.6 µM in assay [3]. The same molecule displayed an ED50 in assay [5] of over 20 mg/kg. In [6], the Response came out at 27%.

As to `CN(c1ccncc1)n1cccc1CCc1ccccc1`, the IC50 came to 3 µM in assay [2] and 8.1 µM in [3]. The Response in [9] amounted to 33%. In addition, in [5], the ED50 was over 20 mg/kg.

Regarding `CC(=O)N(c1ccncc1)n1cccc1`, the IC50 in assay [3] was over 1000 µM.

Regarding `C=CCN(c1ccncc1)n1cccc1`, the Response in assay [1] and in [10] was 20% throughout. In addition, the IC50 in [2] came out at 6.9 µM; in [3] it was 27 µM. Further, in assay [5], the ED50 is over 20 mg/kg.

As to `c1ccc(CN(c2ccncc2)n2cccc2)cc1`, the IC50 was 3.5 µM in assay [2] and 13.5 µM in assay [3]. The molecule also registered a Response in [10] of 20%. Besides, in assay [5], the ED50 was over 20 mg/kg.

Consider `CC(O)c1cccn1N(C)c1ccncc1` (centres undefined), for which the results for the IC50 in assay [2] and in assay [3] were 23 µM and 173 µM, respectively. This molecule showed an ED50 in assay [5] of over 20 mg/kg.

In the case of `CCCCN(c1ccncc1)n1cccc1`, the Response in assay [1] was found to be 20%. Moreover, the IC50 in assay [2] was 4 µM; in [3], 12.5 µM. Further, the ED50 in [5] was over 20 mg/kg.

On to `CN(C)CCC=C1c2ccccc2CCc2ccccc21` [AMITRIPTYLINE], for which, in [3], the IC50 was 0.3 µM. This molecule showed an ED50 in assay [5] of 1.5 mg/kg.
